From ChEMBL document CHEMBL1201862, “PubChem BioAssay data set” (2004) come the findings set out here.

SMILES strings stand for the structures.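 Compound exposure: 48 hours, 5 concentrations, 96-well plates. Here, GI50 denotes the concentration required for 50% inhibition of growth.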 The source made the active and inactive calls. Rule as the data show it: active = GI50 up to about 1.1 µM and inactive = higher. Where only a bound is given, the exact number is not on record here.

Among the test systems are A549; CCRF-CEM; EKVX; HCC 2998; IGROV-1; KM12; OVCAR-3; OVCAR-4; OVCAR-8; RPMI-8226; RXF 393; SF-539; SK-MEL-2; SNB-75; HCT-15.
What all share (assay): NCI-60 cell line screen, 48 h

Turning to `CC1(C)Oc2ccccc2N2O[C@@H]3C(=O)N(c4ccccc4)C(=O)[C@@H]3C21c1ccccc1` (stereo not given in full), the GI50 was 20.1 µM (inactive) in the assay on A549; 27.7 µM (inactive) in the assay with CCRF-CEM; 56.1 µM (inactive) with EKVX; > 100 µM (inactive) in the assay on HCC 2998; 47.5 µM (inactive) in the assay on IGROV-1; 30.6 µM (inactive) in the assay on KM12. The GI50 was 21.2 µM (inactive) with OVCAR-3; 17.9 µM (inactive) in the assay with OVCAR-4; > 10 µM (inactive) with OVCAR-8; 37.8 µM (inactive) in the assay with RPMI-8226; 23.7 µM (inactive) in the assay with RXF 393; 17.3 µM (inactive) in the assay on SF-539. Besides, the values for the GI50 in the assay on SK-MEL-2 and in the assay with SNB-75 were 23.1 µM (inactive) and 17.7 µM (inactive), respectively.

Regarding `CNc1ccc(/C=C2\C=Cc3ccccc32)cc1`, the GI50 with A549 was 24 µM (inactive); in the assay with CCRF-CEM, 43.4 µM (inactive); in the assay on EKVX, 20.1 µM (inactive); in the assay with HCC 2998, 16.6 µM (inactive); in the assay with HCT-15, 20.9 µM; in the assay with IGROV-1, 24.2 µM (inactive). The GI50 in the assay on KM12 is 12.7 µM (inactive); in the assay on OVCAR-3, 21.2 µM (inactive); with OVCAR-4 it was 26.8 µM (inactive); with OVCAR-8, 64.3 µM (inactive); in the assay with RPMI-8226, 54.3 µM (inactive); with RXF 393, 20.8 µM (inactive). For the same compound, the figures for the GI50 with SF-539 and with SK-MEL-2 were 93.3 µM (inactive) and 18.8 µM (inactive), respectively.

For the compound `CC1=CC(=O)C(C)(C2=NC(C)(C)CO2)c2ccccc21` (stereo not given), the GI50 in the assay with A549 was > 100 µM (inactive); in the assay with CCRF-CEM, > 100 µM (inactive); with EKVX, > 100 µM (inactive); in the assay with HCT-15 it was over 100 µM; with IGROV-1 it was > 100 µM (inactive); with KM12 it was > 100 µM (inactive). Besides, the GI50 in the assay on OVCAR-3, with OVCAR-4, in the assay with OVCAR-8, in the assay on RPMI-8226, with RXF 393 and with SF-539 was > 100 µM (inactive) each time. In addition, the GI50 in the assay with SK-MEL-2 and with SNB-75 was > 100 µM (inactive) throughout.

Regarding `CC(C)(C)OC(=O)C1=C(O)C(C(=O)OC(C)(C)C)C23CCCCC12C(C(=O)OC(C)(C)C)C(O)=C3C(=O)OC(C)(C)C` (stereo not given), the GI50 in the assay with A549 was > 100 µM (inactive); with CCRF-CEM, > 100 µM (inactive); in the assay on EKVX it was > 100 µM (inactive); with HCC 2998 it was > 100 µM (inactive); in the assay with HCT-15 it was over 100 µM; in the assay with IGROV-1 it was > 100 µM (inactive). For the same compound, the GI50 in the assay with KM12, in the assay with OVCAR-3, with OVCAR-4, in the assay on OVCAR-8, with RPMI-8226 and in the assay on RXF 393 was > 100 µM (inactive) in each case. For the same compound, the GI50 in the assay on SF-539, with SK-MEL-2 and with SNB-75 was > 100 µM (inactive) each time.

For `NNC(=S)N/N=C(\c1nc2ccc(Cl)cc2nc1O)C(O)c1cccc([N+](=O)[O-])c1` (stereo not given), the GI50 was > 100 µM (inactive) in the assay on A549; > 52.5 µM (inactive) in the assay on CCRF-CEM; > 100 µM (inactive) in the assay with EKVX; > 100 µM (inactive) in the assay on HCC 2998; over 42.1 µM with HCT-15; > 100 µM (inactive) in the assay with IGROV-1. The GI50 was > 100 µM (inactive) in the assay on KM12; > 100 µM (inactive) in the assay with OVCAR-3; > 72.1 µM (inactive) in the assay on OVCAR-4; > 100 µM (inactive) in the assay with OVCAR-8; > 43.3 µM (inactive) in the assay with RPMI-8226; > 94.4 µM (inactive) in the assay on RXF 393. The values for the GI50 in the assay with SF-539, in the assay on SK-MEL-2 and with SNB-75 were > 31.8 µM (inactive), > 100 µM (inactive) and > 100 µM (inactive), respectively.

As to `COc1ccc(/C=C/C(=O)c2sc(-c3cccnc3)nc2C)cc1`, the GI50 in the assay with A549 was 39.2 µM (inactive); in the assay with CCRF-CEM, 28.6 µM (inactive); in the assay with EKVX it was > 100 µM (inactive); in the assay with HCC 2998, 37.5 µM (inactive); in the assay on HCT-15 it was 45.3 µM; with IGROV-1, 60.1 µM (inactive). Also, the GI50 with KM12 is 15.3 µM (inactive); in the assay on OVCAR-3 it was 24.2 µM (inactive); in the assay on OVCAR-8, 35.7 µM (inactive); in the assay on RPMI-8226 it was 2.9 µM (inactive); in the assay with RXF 393 it was 26.3 µM (inactive); in the assay on SF-539 it was 21.1 µM (inactive). Further, the GI50 is 38.4 µM (inactive) in the assay on SK-MEL-2 and 30.1 µM (inactive) with SNB-75.

Consider `O=S1OC2(c3ccccc3-c3ccccc32)c2ccccc21` (stereo not given), for which the GI50 in the assay on A549 is > 100 µM (inactive); in the assay with CCRF-CEM it was 72.8 µM (inactive); with EKVX it was > 100 µM (inactive); in the assay on HCC 2998 it was > 100 µM (inactive); with HCT-15 it was 86.3 µM; in the assay on IGROV-1, > 100 µM (inactive). Further, the GI50 in the assay with KM12 was > 100 µM (inactive); with OVCAR-3, > 100 µM (inactive); with OVCAR-4, > 100 µM (inactive); in the assay with OVCAR-8, > 100 µM (inactive); in the assay with RPMI-8226, > 100 µM (inactive); with RXF 393 it was 53 µM (inactive). The GI50 with SF-539 and with SNB-75 was > 100 µM (inactive) each time.

As to `CCOC(=O)c1csc(CCCCCCc2nc(C(=O)OCC)cs2)n1`, the GI50 was > 45.6 µM (inactive) in the assay on A549; > 42.3 µM (inactive) with CCRF-CEM; > 86.7 µM (inactive) with EKVX; > 100 µM (inactive) with HCC 2998; over 60.5 µM in the assay with HCT-15; > 100 µM (inactive) in the assay with IGROV-1. Moreover, the GI50 in the assay with KM12 was > 100 µM (inactive); in the assay on OVCAR-3, 99.5 µM (inactive); in the assay with OVCAR-4, > 100 µM (inactive); in the assay with OVCAR-8 it was 31.8 µM (inactive); in the assay on RPMI-8226, > 48.8 µM (inactive); in the assay with RXF 393 it was 31.6 µM (inactive). Moreover, the GI50 with SF-539 is > 58.3 µM (inactive); with SK-MEL-2, 97.5 µM (inactive); in the assay on SNB-75, 21.1 µM (inactive).

As for `O=C(O)[C@H](NS(=O)(=O)c1ccc2ccccc2c1)c1ccccc1`, the GI50 in the assay on CCRF-CEM is > 100 µM (inactive); with HCC 2998, > 100 µM (inactive); in the assay on HCT-15 it was over 100 µM; in the assay on IGROV-1 it was > 100 µM (inactive); in the assay with OVCAR-4, > 100 µM (inactive); with RPMI-8226 it was > 100 µM (inactive). In addition, the GI50 with RXF 393 is 20.6 µM (inactive); in the assay with SF-539 it was > 100 µM (inactive); in the assay on SK-MEL-2 it was > 100 µM (inactive); in the assay on SNB-75 it was > 100 µM (inactive).

Consider `O=C1C2=C(c3ccccc31)C(c1ccccc1Cl)NC(S)=N2` (stereo not given), for which the GI50 in the assay with A549 was 85.1 µM (inactive); in the assay on CCRF-CEM, 48.2 µM (inactive); in the assay on EKVX it was > 100 µM (inactive); with HCC 2998, > 100 µM (inactive); in the assay with HCT-15 it was 59.2 µM; with IGROV-1, 56.8 µM (inactive). Besides, the GI50 was 44.5 µM (inactive) in the assay with KM12; 38.1 µM (inactive) with OVCAR-3; 35.6 µM (inactive) in the assay on OVCAR-4; 53 µM (inactive) in the assay with OVCAR-8; 37.4 µM (inactive) in the assay on RPMI-8226; 97.1 µM (inactive) in the assay on SF-539. The GI50 in the assay on SK-MEL-2 was 29.1 µM (inactive); with SNB-75, 26.9 µM (inactive).

`Clc1ccc2cccc3c2c1C1OC3c2ccccc21` (stereo not given): the GI50 with A549 is > 100 µM (inactive); with CCRF-CEM, > 100 µM (inactive); in the assay with EKVX, > 100 µM (inactive); in the assay with HCC 2998, > 100 µM (inactive); with IGROV-1 it was > 100 µM (inactive); in the assay with KM12, 71.4 µM (inactive). The GI50 is > 100 µM (inactive) with OVCAR-3; > 100 µM (inactive) in the assay with OVCAR-8; > 100 µM (inactive) in the assay on RPMI-8226; 55.5 µM (inactive) in the assay with RXF 393; > 100 µM (inactive) with SF-539; > 100 µM (inactive) with SK-MEL-2. In addition, the GI50 with SNB-75 was 99.8 µM (inactive).

Regarding `COC(=O)c1oc([N+](=O)[O-])c(-c2ccccc2)c1-c1ccccc1`, the GI50 is > 100 µM (inactive) in the assay on A549; 67.9 µM (inactive) with CCRF-CEM; > 100 µM (inactive) in the assay on EKVX; > 100 µM (inactive) in the assay with HCC 2998; > 100 µM (inactive) with IGROV-1; > 100 µM (inactive) in the assay on KM12. The GI50 in the assay with OVCAR-3, in the assay on OVCAR-4, in the assay with OVCAR-8, in the assay on RPMI-8226, in the assay on SF-539 and in the assay on SK-MEL-2 was > 100 µM (inactive) throughout. For the same compound, the GI50 in the assay with SNB-75 was > 100 µM (inactive).

For `N#Cc1c(N)c(C(=O)O)nn(-c2cccc(C(F)(F)F)c2)c1=O`, the GI50 in the assay on A549 was > 100 µM (inactive); in the assay with CCRF-CEM it was > 100 µM (inactive); in the assay with EKVX, 33.6 µM (inactive); in the assay with HCT-15 it was 95.1 µM; with IGROV-1, > 100 µM (inactive); with KM12, > 100 µM (inactive). For the same compound, the GI50 in the assay with OVCAR-3 was > 100 µM (inactive); with OVCAR-8, > 100 µM (inactive); with RPMI-8226, 88.9 µM (inactive); with RXF 393, 52.5 µM (inactive); with SF-539, > 100 µM (inactive); in the assay on SK-MEL-2, > 100 µM (inactive). Besides, the GI50 with SNB-75 is 14 µM (inactive).

`O=CC[C@H]1CCc2ccccc2C12CCC(=O)CC2`: the GI50 with A549 is 55.7 µM (inactive); in the assay on CCRF-CEM, 39.8 µM (inactive); with HCC 2998 it was > 100 µM (inactive); in the assay with HCT-15, 80.4 µM; with IGROV-1 it was > 100 µM (inactive); with KM12, 82.8 µM (inactive). The GI50 is > 100 µM (inactive) in the assay on OVCAR-3; > 100 µM (inactive) in the assay on OVCAR-4; > 100 µM (inactive) with OVCAR-8; 35.4 µM (inactive) with RPMI-8226; 6.21 µM (inactive) with SF-539; > 100 µM (inactive) in the assay on SK-MEL-2. Further, in the assay with SNB-75, the GI50 is 52.8 µM (inactive).

On to `CN(C)C(=S)/N=c1\ss/c(=N\C(=S)N(C)C)n1-c1ccc(Cl)cc1`, for which the GI50 in the assay with A549 was > 100 µM (inactive); in the assay with CCRF-CEM, > 100 µM (inactive); in the assay with EKVX, > 100 µM (inactive); in the assay on HCT-15, over 100 µM; with IGROV-1 it was > 100 µM (inactive); in the assay with KM12 it was > 100 µM (inactive). Further, the GI50 is > 100 µM (inactive) in the assay on OVCAR-3; > 10 µM (inactive) in the assay on OVCAR-4; > 100 µM (inactive) in the assay on OVCAR-8; > 100 µM (inactive) in the assay on RPMI-8226; > 100 µM (inactive) with RXF 393; > 100 µM (inactive) in the assay with SF-539. For the same compound, the GI50 was > 100 µM (inactive) in the assay on SK-MEL-2 and 3.33 µM (inactive) in the assay with SNB-75.
